Measured values from PMC10500001, “Dual hypoxia-responsive supramolecular complex for cancer target therapy” (Nature Communications, 2023).
Several values for one entry are separate records, joined by “and”; a condition that tells them apart may be missing. Identical values can stand only once.

Experiments:
PANC1 cells = assay: CCK8 cytotoxicity of SAC5A and SBE-β-CD, 24 h; assay type: cell-based, human; details: for cell viability: 24 h, in % (unit assumed)
Experimental: PANC1 cells (5 × 10^3 cells/well) were seeded into the 96-well plate and incubated overnight. They were treated with SAC5A or SBE-β-CD of different concentrations and incubated for 24 h under normoxic or hypoxic conditions, respectively. […] After a 6 h incubation under normoxic conditions, the culture medium was exchanged with fresh medium. Subsequently, the cells were incubated at 37 °C for 18 h under either normoxic or hypoxic conditions, respectively. And then, the culture medium was replaced with fresh medium and 10 μL cell counting kit-8 solution (C6005, US Everbright, Jiangsu, China). Following a 4 h incubation, the optical density was assessed at 450 nm employing a microplate reader.
Supplementary Figure 19. The cytotoxicity of SAC5A and SBE-β-CD. (a) Cell viability
Data are presented as mean ± SD (n = 6 biologically independent samples).

[1] = Competitive fluorescence titration of RhB@SAC5A with NMP-BE; details: binding of SAC5A to NMP-BE, 1:1 competitive binding, PBS 10 mM pH 7.4, 25 °C
Experimental: Data are presented as mean ± SD (n = 3 biologically independent samples). Source data are provided as a Source Data file.
The complexation of SAC5A with NMP-BE was measured by competitive fluorescence titrations. A mixed solution containing known amounts of reporter dye (RhB), host (SAC5A) and competitive guest (NMP-BE) was injected into 2.50 mL RhB and SAC5A solution in a quartz cuvette. Care was taken to keep the concentrations of dye and SAC5A constant in the course of titrations. The fluorescence intensity was measured (λex = 554 nm for RhB) before the first addition and after every addition. The association constant was obtained by fitting fluorescence intensity (λem = 575 nm for RhB) according to a 1:1 competitive binding model. The fitting of data from direct titrations and competitive titrations was performed in a nonlinear manner, and the fitting modules were downloaded from the website of Prof. Nau’s group (http://www.jacobs-university.de/ses/wnau) under the column of “Fitting Functions”.

[2] = tested on: PANC1 tumor-bearing BALB/c nude mice; assay: In vivo anticancer efficacy study of NMP-BE@SAC5A; parameters: species or system mouse; details: for Tumor volume: SAC5A 15, NMP-BE 5, NMP-BE@SAC5A 20 mg/kg iv
Excerpt: After the tumor grows to a suitable size, the tumor was divided into small pieces and then subcutaneously inoculated into the right flank of other mice. After 10 d of inoculation, when the tumor volumes of mice were around 50 mm^3, PANC1-bearing BALB/c nude mice were separated randomly with a total of six mice in each group. […] On day 18 after injection, the mice were euthanized, and their tumors were collected. […] In addition, we also investigated the anticancer effects of NMP-BE@SBE-β-CD.
(§1) Tumors were measured as mentioned above.

[3] = tested on: PANC1 tumor-bearing BALB/c nude mice; assay: In vivo anticancer effects of NMP and SAC5A; parameters: species or system mouse; details: for Tumor volume: Supplementary Fig.22a
Experimental: Supplementary Figure 22. […] (a) Average […]
presented as mean ± SD (n = 6 mice per group). P values are calculated by two-way […]
Data are presented as mean ± SD ( n = 6 biologically independent samples ). P values are calculated by one-way ANOVA with Turkey’s multiple comparisons test: ns: no […]
Note: (b) During the experiment, the tumor images were taken of PBS vs NMP, PBS vs SAC5A groups respectively. As the PBS group consisted of the same tumors, the tumor

PANC1 tumor tissues = assay: Histology of dissected tumors (H&E, TUNEL, Ki67); details: mouse, in vivo
Experimental: The hematoxylin-eosin (H&E) staining and terminal deoxynucleotidyl transferase dUTP nick end labeling (TUNEL) tests were next carried out to evaluate the cell pathology changes and apoptosis in the tumors of every groups. […] Meanwhile, we verified the effects of different treatments on cancer cell proliferation by immunofluorescence Ki67 staining.
as §1

[4] = Biosafety: blood routine and blood chemistry assays
Experimental: Toxic effects are a barrier to overcome before efficient deliverability can be achieved with BE.
For in vivo anticancer efficacy study, 1 × 10^6 PANC1 cells were injected subcutaneously into the right flanks of the BALB/c nude mice. To investigate the anticancer effects of SBE-β-CD@NMP-BE, the mice with tumor volumes at around 50 mm^3 were randomized into four groups (6 mice per group) and injected intravenously via tails with 200 μL of PBS, NMP-BE (5 mg/kg), SBE-β-CD (15 mg/kg) and NMP-BE@SBE-β-CD (20 mg/kg) every two days for 8 times and the tumor volumes for 14 days were continuously monitored. Tumor were measured by using a Vernier calipers and the volume (V) was calculated to be V = d^2 × D/2, where d is the shortest and the D is longest diameter of the tumor in mm respectively. […] Tumors were measured as mentioned above. To assess potential toxicities, mice were monitored for weight loss. Tumors were collected for H&E analysis and immunofluorescence staining. Major organs including heart, liver, spleen, lung, and kidney, were collected and stained with H&E for histopathologic analysis. To evaluate biosafety of SAC5A, blood samples were collected for blood chemistry assay and blood routine assay.

O=S(=O)(O)c1ccc(/N=N/c2cc3c(O)c(c2)Cc2cc(/N=N/c4ccc(S(=O)(=O)O)cc4)cc(c2O)Cc2cc(/N=N/c4ccc(S(=O)(=O)O)cc4)cc(c2O)Cc2cc(/N=N/c4ccc(S(=O)(=O)O)cc4)cc(c2O)Cc2cc(/N=N/c4ccc(S(=O)(=O)O)cc4)cc(c2O)C3)cc1 [SAC5A, sulfonated azocalix[5]arene]
cell viability (PANC1 cells; PANC1, Hypoxia, 10 μM): 101.91 and 106.97 and 106.87 and 103.95 and 95.76 and 94.38
cell viability (PANC1 cells; PANC1, Hypoxia, 20 μM): 98.99 and 105.90 and 107.51 and 100.07 and 96.78 and 98.26
cell viability (PANC1 cells; PANC1, Hypoxia, 40 μM): 96.62 and 103.74 and 107.19 and 94.57 and 95.43 and 98.62
cell viability (PANC1 cells; PANC1, Hypoxia, 100 μM): 89.44 and 102.24 and 97.97 and 93.46 and 97.47 and 88.44
cell viability (PANC1 cells; PANC1, Hypoxia, 200 μM): 96.47 and 99.73 and 95.34 and 92.70 and 90.07 and 95.59
cell viability (PANC1 cells; PANC1, Hypoxia, 400 μM): 98.35 and 96.22 and 97.85 and 103.12 and 92.08 and 92.95
cell viability (PANC1 cells; PANC1, Normoxia, 10 μM): 94.32 and 96.61 and 94.68 and 98.32 and 94.21 and 96.48
cell viability (PANC1 cells; PANC1, Normoxia, 20 μM): 92.78 and 88.19 and 94.36 and 97.85 and 97.21 and 107.50
cell viability (PANC1 cells; PANC1, Normoxia, 40 μM): 88.98 and 89.46 and 94.68 and 94.21 and 93.73 and 87.87
cell viability (PANC1 cells; PANC1, Normoxia, 100 μM): 86.69 and 92.80 and 86.44 and 99.65 and 91.72 and 99.02
cell viability (PANC1 cells; PANC1, Normoxia, 200 μM): 96.38 and 94.98 and 93.23 and 105.44 and 89.58 and 94.49
cell viability (PANC1 cells; PANC1, Normoxia, 400 μM): 90.21 and 94.16 and 91.97 and 97.63 and 95.37 and 92.10
cytotoxicities (PANC1 cells; PANC1 cells, 10 μM to 0.40 mM, normoxic and hypoxic): negligible
Ka [1]: (5.1 ± 0.5) × 10^6 M^−1
Mice weight ([2]; Day 0, single mouse): 18.5 g and 17.7 g and 16.0 g and 18.0 g and 17.5 g and 16.6 g
Tumor volume ([2]; Day 0, single mouse): 39.34 mm3 and 42.10 mm3 and 36.90 mm3 and 42.16 mm3 and 42.33 mm3 and 56.35 mm3
Mice weight ([2]; Day 2, single mouse): 14.6 g and 16.5 g and 17.5 g and 17.9 g and 18.5 g and 17.6 g
Tumor volume ([2]; Day 2, single mouse): 46.70 mm3 and 75.90 mm3 and 48.08 mm3 and 55.90 mm3 and 59.70 mm3 and 76.08 mm3
Tumor volume ([2]; Day 4, single mouse): 55.83 mm3 and 118.84 mm3 and 75.42 mm3 and 64.80 mm3 and 72.81 mm3 and 104.25 mm3
Mice weight ([2]; Day 6, single mouse): 16.3 g and 16.8 g and 17.8 g and 19.4 g and 19.1 g
Tumor volume ([2]; Day 6, single mouse): 73.60 mm3 and 175.66 mm3 and 110.64 mm3 and 99.97 mm3 and 116.56 mm3 and 152.05 mm3
Mice weight ([2]; Day 8, single mouse): 16.1 g and 19.1 g and 16.0 g and 17.6 g and 17.1 g and 18.7 g
Tumor volume ([2]; Day 8, single mouse): 97.53 mm3 and 181.96 mm3 and 126.04 mm3 and 134.13 mm3 and 98.89 mm3 and 192.89 mm3
Mice weight ([2]; Day 10, single mouse): 15.8 g and 18.5 g and 15.6 g and 17.5 g and 16.4 g and 18.7 g
Tumor volume ([2]; Day 10, single mouse): 142.07 mm3 and 265.92 mm3 and 173.37 mm3 and 226.57 mm3 and 159.78 mm3 and 251.75 mm3
Mice weight ([2]; Day 12, single mouse): 16.5 g and 19.0 g and 16.2 g and 18.3 g and 16.3 g and 18.5 g
Tumor volume ([2]; Day 12, single mouse): 165.62 mm3 and 298.12 mm3 and 264.30 mm3 and 338.22 mm3 and 196.07 mm3 and 282.53 mm3
Mice weight ([2]; Day 14, single mouse): 16.0 g and 18.0 g and 16.1 g and 18.7 g and 16.4 g and 16.2 g
Tumor volume ([2]; Day 14, single mouse): 268.77 mm3 and 498.25 mm3 and 328.38 mm3 and 404.85 mm3 and 346.37 mm3 and 404.41 mm3
Mice weight ([2]; Day 16, single mouse): 16.6 g and 18.4 g and 19.3 g and 16.3 g and 19.7 g
Tumor volume ([2]; Day 16, single mouse): 387.44 mm3 and 789.47 mm3 and 472.22 mm3 and 693.97 mm3 and 504.38 mm3 and 616.16 mm3
Mice weight ([2]; Day 18, single mouse): 16.3 g and 17.8 g and 17.5 g and 16.2 g and 19.7 g
Tumor volume ([2]; Day 18, single mouse): 532.86 mm3 and 970.26 mm3 and 525.48 mm3 and 748.96 mm3 and 671.75 mm3 and 704.93 mm3
anticancer effect ([2]; PANC1-bearing BALB/c nude mice, iv every other day, 18 days): no anticancer effect
Tumor weight ([2]; day mice were sacrificed (day 18), single mouse): 287.7 mg and 279.3 mg and 561.1 mg and 306.5 mg and 287.3 mg and 306.9 mg
Tumor volume ([3]; day 0, individual mice (n=6)): 39.34 mm3 and 42.10 mm3 and 36.90 mm3 and 42.16 mm3
Tumor volume ([3]; day 2, individual mice (n=6)): 46.70 mm3 and 75.90 mm3 and 48.08 mm3 and 55.90 mm3
Tumor volume ([3]; day 4, individual mice (n=6)): 55.83 mm3 and 118.84 mm3 and 75.42 mm3 and 64.80 mm3
Tumor volume ([3]; day 6, individual mice (n=6)): 73.60 mm3 and 175.66 mm3 and 110.64 mm3 and 99.97 mm3
Tumor volume ([3]; day 8, individual mice (n=6)): 97.53 mm3 and 181.96 mm3 and 126.04 mm3 and 134.13 mm3
Tumor volume ([3]; day 10, individual mice (n=6)): 142.07 mm3 and 265.92 mm3 and 173.37 mm3 and 226.57 mm3
Tumor volume ([3]; day 12, individual mice (n=6)): 165.62 mm3 and 298.12 mm3 and 264.30 mm3 and 338.22 mm3
Tumor volume ([3]; day 14, individual mice (n=6)): 268.77 mm3 and 498.25 mm3 and 328.38 mm3 and 404.85 mm3
Tumor volume ([3]; day 16, individual mice (n=6)): 387.44 mm3 and 789.47 mm3 and 472.22 mm3 and 693.97 mm3
Tumor volume ([3]; day 18, individual mice (n=6)): 532.86 mm3 and 970.26 mm3 and 525.48 mm3 and 748.96 mm3
Tumor weight ([3]; individual mice (n=6), Supplementary Fig.22c): 306.9 mg and 287.7 mg and 279.3 mg and 561.1 mg and 306.5 mg and 287.3 mg
TUNEL apoptosis in tumors (PANC1 tumor tissues): negligible apoptosis
ALP ([4]; blood chemistry, individual mice 1-5, Fig.6h): 192.3 U/L and 155.8 U/L and 154.8 U/L and 192.1 U/L and 150.9 U/L
ALT ([4]; blood chemistry, individual mice 1-5, Fig.6i): 40 U/L and 44.1 U/L and 53.2 U/L and 59.2 U/L and 46 U/L
AST ([4]; blood chemistry, individual mice 1-5, Fig.6j): 141.2 U/L and 161.4 U/L and 172.2 U/L and 182.6 U/L and 148.2 U/L
CRE ([4]; blood chemistry, individual mice 1-5, Fig.6k): 141.2 µmol/L and 161.4 µmol/L and 172.2 µmol/L and 182.6 µmol/L and 148.2 µmol/L
BUN ([4]; blood chemistry, individual mice 1-5, Fig.6l): 8.3 mmol/L and 8.7 mmol/L and 6.3 mmol/L
RBC ([4]; blood routine, individual mice 1-5, Fig.6a): 10.0 1012/L and 9.2 1012/L and 9.1 1012/L and 11.1 1012/L and 11.2 1012/L
MCHC ([4]; blood routine, individual mice 1-5, Fig.6b): 305 g/L and 300 g/L and 301 g/L and 299 g/L and 308 g/L
HCT ([4]; blood routine, individual mice 1-5, Fig.6c): 51.8% and 49.2% and 51% and 53.8% and 50.9%
MCV ([4]; blood routine, individual mice 1-5, Fig.6d): 48.4 fL and 48.1 fL and 48.2 fL and 48.5 fL and 49.1 fL
PLT ([4]; blood routine, individual mice 1-5, Fig.6e): 11.4 1011/L and 11.8 1011/L and 10.7 1011/L and 11.5 1011/L and 12.0 1011/L
RDW ([4]; blood routine, individual mice 1-5, Fig.6f): 14.3% and 14.9% and 13.6% and 13.3%
MPV ([4]; blood routine, individual mice 1-5, Fig.6g): 5.3 fL and 5.4 fL and 6 fL and 5.5 fL
RBC, MCHC, HCT, MCV, PLT, RDW, MPV, ALP, ALT, AST, CRE, BUN levels versus PBS group ([4]; one-way ANOVA): no significance
RBC, MCHC, HCT, MCV, PLT, RDW, MPV values ([4]; treated mice): small alteration
